In brackets after ≈: the same amount, converted by molar mass.
Key:
[1] = tested on: C. metapsilosis MUM 15.12; assay: MIC, CLSI M27 broth microdilution; format: cell-based, Candida metapsilosis; settings: Lodderomyces metapsilosis, MUM15.12, 24 h, read-out: GM MIC
Description: (§1) The fungal strains used in this study were C. albicans ATCC 10231, C. albicans ATCC 64550, C. parapsilosis ATCC 22019, C. tropicalis ATCC 750, C. tropicalis ATCC 200956 (resistant to azoles and AMB), C. glabrata LMDM 34 (resistant to echinocandins), C. metapsilosis MUM 15.12, C. orthopsilosis MUM 17.13, C. lusitaniae MUM 17.08, C. krusei ATCC 6258 (Issatchenkia orientalis ATCC 6258), and C. auris CDC B11903. Additionally, nine clinical isolates were included: C. parapsilosis Synlab 406 (FLC-resistant) and eight C. auris isolates identified by MALDI-TOF MS (Bruker Daltonics, Bremen, Germany) according to Zhao et al.. These yeasts were cultured on Sabouraud Dextrose Agar (SDA; Sigma-Aldrich, St. Louis, MO, USA) for 24 h at 35 °C.
(§2) Antifungal susceptibility testing was performed according to Clinical and Laboratory Standards Institute M27, 4th Edition (CLSI standard M27, 4th Edition). Some modifications were applied for evaluation of the antifungal activity of EOs and terpenes. Initially, a screening was carried out to determine the antifungal activity of the EOs and of commercial terpenes. Stock concentrations of EOs and terpenes were prepared at 512 µg/mL and an inoculum of 2.5 × 10^3 CFU/mL of each yeast was prepared in RPMI 1640-MOPS (Sigma- Aldrich St. Louis, MO, USA). Thereafter, 100 µL of each stock solution of EOs or terpenes was dispensed in 96-well microdilution plates (Corning®, Costar®, NY, USA) and 100 µL of each yeast inoculum was added. […] Microdilution plates were incubated at 35 °C and, after 24 h, the presence or absence of growth was visually checked using a manual mirror viewer and then compared with the amount of growth in the control (no EO or terpene). Compounds able to inhibit yeast growth were tested to determine the minimal inhibitory concentration (MIC) as follows: 100 µL of 10 two-fold dilutions of the EOs or commercial terpenes was dispensed in 96-well microplates and the yeast inoculum was added. Final concentrations of the EOs or terpenes ranged from 0.5 µg/mL to 256 µg/mL. Microdilution plates were incubated at 35 °C for 24 h. MICs were visually determined at the lowest concentration that produced visual inhibition compared to the growth control. The assays were performed at least three times in duplicate on different days. The results were expressed as geometric means (GM) and ranges. As an antifungal susceptibility testing control, the activity of ITC and AMB against the reference strains C. krusei ATCC 6258 and C. parapsilosis ATCC 22019 was evaluated in all experiments following the CLSI standard M27, 4th Edition. It was mandatory that the MIC values remained in the accepted range.

C. auris CDC B11903 = assay: MIC, CLSI M27 broth microdilution; format: cell-based, Candida auris
Description: as §1, §2

C. auris Ca 46 = assay: MIC, CLSI M27 broth microdilution; format: cell-based, Candida auris; settings: Candidozyma auris, CA46, 24 h, read-out: GM MIC
Description: as §1, §2

C. auris Ca 17 = assay: MIC, CLSI M27 broth microdilution; format: cell-based, Candida auris; settings: Candidozyma auris, CA17, 24 h, read-out: GM MIC
Description: as §1, §2

C. auris Ca 13 = assay: MIC, CLSI M27 broth microdilution; format: cell-based, Candida auris
Description: as §1, §2

C. auris Ca 45 = assay: MIC, CLSI M27 broth microdilution; format: cell-based, Candida auris
Description: as §1, §2

C. auris Ca 41 = assay: MIC, CLSI M27 broth microdilution; format: cell-based, Candida auris
Description: as §1, §2

C. auris Ca 32 = assay: MIC, CLSI M27 broth microdilution; format: cell-based, Candida auris; settings: Candidozyma auris, CA32, 24 h, read-out: GM MIC
Description: as §1, §2

C. auris Ca 9 = assay: MIC, CLSI M27 broth microdilution; format: cell-based, Candida auris; settings: Candidozyma auris, CA9, 24 h, read-out: GM MIC
Description: as §1, §2

C. auris Ca 1 = assay: MIC, CLSI M27 broth microdilution; format: cell-based, Candida auris
Description: as §1, §2

C. auris = tested on: C. auris; set-up: method as in PMID 31980703; settings: cited from earlier work
Cytotoxicity, MTT assay = settings: human, HaCaT keratinocyte cells
Description: Cells were cultured in Dulbecco’s Modified Eagle Medium (DMEM; Sigma-Aldrich, St. Louis, MO, USA) supplemented with 10% fetal bovine serum (Invitrogen, Carlsbad, CA, USA), 1% penicillin, streptomycin, and neomycin (Invitrogen, Carlsbad, CA, USA), and 1% L-glutamine (Invitrogen, Carlsbad, CA, USA) at 37 °C in a humidified atmosphere of 5% CO2. […] Afterwards, the culture medium was removed and 3-(4.5-dimethylthiazol-2-yl)-2.5-diphenyltetrazolium bromide (MTT) (Sigma-Aldrich, St. Louis, MO, USA) at 5 mg/mL was added at 37 °C for 2 h. Subsequently, DMSO was added to dissolve the formazan crystals. Finally, the absorbances were measured with a Multiskan SkyHigh Microplate Spectrophotometer (Thermo Fisher Scientific, Waltham, MA, USA) at λ = 570 nm. The CC50 values were obtained by linear regression analysis with concentration–response curves, which were performed with absorbance data using GraphPad Prism software (Prism 9.3.0, San Diego, CA, USA). The assays were conducted at two separate times in triplicate. The data were expressed as means.

[2] = tested on: C. tropicalis ATCC 200956; assay: MIC, CLSI M27 broth microdilution; format: cell-based, Candida tropicalis; settings: Candida tropicalis, ATCC200956, 24 h, read-out: GM MIC
Description: as §1, §2

C. krusei ATCC 6258 = assay: MIC, CLSI M27 broth microdilution; format: cell-based, Candida krusei; settings: Pichia kudriavzevii, ATCC6258, 24 h, read-out: GM MIC
Description: as §1, §2

[3] = tested on: C. parapsilosis Synlab 406; assay: MIC, CLSI M27 broth microdilution; format: cell-based, Candida parapsilosis
Description: as §1, §2

C. lusitaniae MUM 17.08 = assay: MIC, CLSI M27 broth microdilution; format: cell-based, Candida lusitaniae
Description: as §1, §2

[4] = tested on: C. orthopsilosis MUM 17.13; assay: MIC, CLSI M27 broth microdilution; format: cell-based, Candida orthopsilosis; settings: Lodderomyces orthopsilosis, MUM17.13, 24 h, read-out: GM MIC
Description: as §1, §2

Candida spp. = assay: Screening of antifungal activity at 256 µg/mL against twenty strains; format: cell-based; settings: screening at 256 µg/mL
Description: as §1
Antifungal susceptibility testing was performed according to Clinical and Laboratory Standards Institute M27, 4th Edition (CLSI standard M27, 4th Edition). Some modifications were applied for evaluation of the antifungal activity of EOs and terpenes. Initially, a screening was carried out to determine the antifungal activity of the EOs and of commercial terpenes. Stock concentrations of EOs and terpenes were prepared at 512 µg/mL and an inoculum of 2.5 × 10^3 CFU/mL of each yeast was prepared in RPMI 1640-MOPS (Sigma- Aldrich St. Louis, MO, USA). Thereafter, 100 µL of each stock solution of EOs or terpenes was dispensed in 96-well microdilution plates (Corning®, Costar®, NY, USA) and 100 µL of each yeast inoculum was added. […] MICs were visually determined at the lowest concentration that produced visual inhibition compared to the growth control. […] The results were expressed as geometric means (GM) and ranges. As an antifungal susceptibility testing control, the activity of ITC and AMB against the reference strains C. krusei ATCC 6258 and C. parapsilosis ATCC 22019 was evaluated in all experiments following the CLSI standard M27, 4th Edition. […]

For `Cc1ccc(C(C)C)cc1O` [Carvacrol, carvacrol], the MIC [1] was 128 µg/mL (≈ 852 µM), the “Range MIC” value (C. auris CDC B11903; C. auris CDC B11903, EOs and terpenes) was 64 to 128 µg/mL and the MIC (C. auris CDC B11903; Candidozyma auris, CDCB11903, 24 h, read-out: GM MIC) was 90.5 µg/mL (≈ 602 µM). The MIC (C. auris Ca 46) was 64 µg/mL (≈ 426 µM), the MIC (C. auris Ca 17) was 128 µg/mL (≈ 852 µM) and the “Range MIC” value (C. auris Ca 13; C. auris Ca 13, EOs and terpenes) was 128 to 256 µg/mL. The MIC (C. auris Ca 13; Candidozyma auris, CA13, 24 h, read-out: GM MIC) was 181 µg/mL (≈ 1200 µM), the “Range MIC” value (C. auris Ca 45; C. auris Ca 45, EOs and terpenes) was 64 to 128 µg/mL and the MIC (C. auris Ca 45; Candidozyma auris, CA45, 24 h, read-out: GM MIC) was 90.5 µg/mL (≈ 602 µM). The “Range MIC” value (C. auris Ca 41; C. auris Ca 41, EOs and terpenes) was 64 to 128 µg/mL, the MIC (C. auris Ca 41; Candidozyma auris, CA41, 24 h, read-out: GM MIC) was 90.5 µg/mL (≈ 602 µM) and the MIC (C. auris Ca 32) was 64 µg/mL (≈ 426 µM). The MIC (C. auris Ca 9) was 256 µg/mL (≈ 1700 µM), the “Range MIC” value (C. auris Ca 1; C. auris Ca 1, EOs and terpenes) was 128 to 256 µg/mL and the MIC (C. auris Ca 1; Candidozyma auris, CA1, 24 h, read-out: GM MIC) was 181 µg/mL (≈ 1200 µM). For the same compound, the MIC Range (C. auris) was 63 to 250 µg/mL, the CC50 at 24 h (Cytotoxicity, MTT assay) was 411 µg/mL (≈ 2730 µM) and the MIC [2] was 128 µg/mL (≈ 852 µM). For the same compound, the MIC (C. krusei ATCC 6258) was 256 µg/mL (≈ 1700 µM), the “Range MIC” value ([3]; C. parapsilosis Synlab 406, EOs and terpenes) was 32 to 64 µg/mL and the MIC ([3]; Lodderomyces parapsilosis, SYNLAB406, 24 h, read-out: GM MIC) was 45.3 µg/mL (≈ 302 µM). The “Range MIC” value (C. lusitaniae MUM 17.08; C. lusitaniae MUM 17.08, EOs and terpenes) was 128 to 256 µg/mL, the MIC (C. lusitaniae MUM 17.08; Clavispora lusitaniae, MUM17.08, 24 h, read-out: GM MIC) was 181 µg/mL (≈ 1200 µM) and the MIC [4] was 128 µg/mL (≈ 852 µM). For the same compound, the “antifungal activity in screening” value (Candida spp.) was “active against all tested Candida spp”.
